Measurements from ChEMBL document CHEMBL5137031, “The structure-based design of peptidomimetic inhibitors against SARS-CoV-2 3C like protease as Potent anti-viral drug candidate” (Eur J Med Chem, 2022).

Key:
[1] = target: Replicase polyprotein 1ab (Severe acute respiratory syndrome coronavirus 2, UniProt P0DTD1); experiment: Inhibition of SARS-CoV-2 3CL protease expressed in Escherichia coli BL21 (DE3) cells assessed as change in relative fluorescence unit using MCA-TSAVLQSGFRK(DNP)M as substrate preincubated for 30 mins followed by substrate addition and measured after 2 hrs by microplate reader based FRET assay
A549 = experiment: Cytotoxicity against human A549 cells assessed as inhibition of cell growth measured after 24 hrs by MTT assay; format: toxicity, cell-based; conditions: a549, 24 h
SARS-CoV-2 [2] = experiment: Antiviral activity against SARS-CoV-2 WIV04 infected in African green monkey Vero cells assessed as inhibition of viral proliferation measured at 24 hrs post infection by qRT-PCR analysis; format: functional, organism-based; conditions: Severe acute respiratory syndrome coronavirus 2, WIV04, Vero
SARS-CoV-2 [3] = experiment: Antiviral activity against SARS-CoV-2 WIV04 infected in African green monkey Vero cells assessed as log reduction in viral RNA at 10 uM measured at 24 hrs post infection by qRT-PCR analysis; format: functional, Severe acute respiratory syndrome coronavirus 2
Vero = experiment: Cytotoxicity against African green monkey Vero cells assessed as reduction in cell viability incubated for 48 hrs by CCK8 assay; format: toxicity, cell-based; conditions: chlorocebus sabaeus

CCCC[C@H](NC(=O)/C=C/c1ccccc1)C(=O)N[C@H](C=O)C[C@@H]1CCNC1=O
IC50 [1]: 373 nM
Activity (A549): Non-Toxic
EC50 (SARS-CoV-2 [2]): 1110 nM
log(activity) (SARS-CoV-2 [3]): 2
Activity (Vero): Non-Toxic

O=C[C@H](C[C@@H]1CCCNC1=O)NC(=O)[C@@H](NC(=O)/C=C/c1ccccc1)c1ccccc1
IC50 [1]: 2040 nM
Activity (A549): Non-Toxic
EC50 (SARS-CoV-2 [2]): > 3000 nM

CC(C)C[C@H](NC(=O)[C@@H](NC(=O)/C=C/c1ccc(F)cc1)C(C)C)C(=O)N[C@H](C=O)C[C@@H]1CCCNC1=O
IC50 [1]: 307 nM
Activity (A549): Non-Toxic
EC50 (SARS-CoV-2 [2]): > 3000 nM

C#CC[C@H](NC(=O)/C=C/c1ccccc1)C(=O)N[C@H](C=O)C[C@@H]1CCNC1=O
IC50 [1]: 3890 nM
Activity (A549): Non-Toxic
EC50 (SARS-CoV-2 [2]): > 3000 nM

C#CC[C@H](NC(=O)/C=C/c1ccccc1)C(=O)N[C@H](C=O)C[C@@H]1CCCNC1=O
IC50 [1]: 3280 nM
Activity (A549): Non-Toxic
EC50 (SARS-CoV-2 [2]): > 3000 nM

CC(C)C[C@H](NC(=O)[C@@H](NC(=O)c1ccc2cc[nH]c2c1)C(C)C)C(=O)N[C@H](C=O)C[C@@H]1CCCNC1=O
IC50 [1]: 221 nM
Activity (A549): Non-Toxic
EC50 (SARS-CoV-2 [2]): > 3000 nM

CC(C)C[C@H](NC(=O)[C@@H](NC(=O)c1ccc([N+](=O)[O-])cc1)C(C)C)C(=O)N[C@H](C=O)C[C@@H]1CCCNC1=O
IC50 [1]: 209 nM
Activity (A549): Non-Toxic
EC50 (SARS-CoV-2 [2]): > 3000 nM

CC(C)C[C@H](NC(=O)[C@@H](NC(=O)c1ccccn1)C(C)C)C(=O)N[C@H](C=O)C[C@@H]1CCCNC1=O
IC50 [1]: 565 nM
Activity (A549): Non-Toxic
EC50 (SARS-CoV-2 [2]): > 3000 nM

CC(C)C[C@H](NC(=O)[C@@H](NC(=O)C1CCOCC1)C(C)C)C(=O)N[C@H](C=O)C[C@@H]1CCCNC1=O
IC50 [1]: 285 nM
Activity (A549): Non-Toxic
EC50 (SARS-CoV-2 [2]): > 3000 nM

CCC[C@H](NC(=O)/C=C/c1ccccc1)C(=O)N[C@@H](CC(C)C)C(=O)N[C@H](C=O)C[C@@H]1CCCNC1=O
IC50 [1]: 543 nM
Activity (A549): Non-Toxic
EC50 (SARS-CoV-2 [2]): > 3000 nM

CC(C)C[C@H](NC(=O)[C@@H](NC(=O)c1ccc[nH]1)C(C)C)C(=O)N[C@H](C=O)C[C@@H]1CCCNC1=O
IC50 [1]: 172 nM
Activity (A549): Non-Toxic
EC50 (SARS-CoV-2 [2]): > 3000 nM

CC(C)C[C@H](NC(=O)[C@@H](NC(=O)/C=C/c1cccc(F)c1)C(C)C)C(=O)N[C@H](C=O)C[C@@H]1CCCNC1=O
IC50 [1]: 255 nM
Activity (A549): Non-Toxic
EC50 (SARS-CoV-2 [2]): > 3000 nM

CC(C)C[C@H](NC(=O)[C@@H](NC(=O)/C=C/c1ccccc1)C(C)C)C(=O)N[C@H](C=O)C[C@@H]1CCCNC1=O
IC50 [1]: 281 nM
Activity (A549): Non-Toxic
EC50 (SARS-CoV-2 [2]): > 3000 nM

CC(C)C[C@H](NC(=O)[C@@H](NC(=O)c1ccco1)C(C)C)C(=O)N[C@H](C=O)C[C@@H]1CCCNC1=O
IC50 [1]: 234 nM
Activity (A549): Non-Toxic
EC50 (SARS-CoV-2 [2]): > 3000 nM

CC(C)C[C@H](NC(=O)[C@@H](NC(=O)c1ccc(-c2ccccc2)cc1)C(C)C)C(=O)N[C@H](C=O)C[C@@H]1CCCNC1=O
IC50 [1]: 404 nM
Activity (A549): Non-Toxic
EC50 (SARS-CoV-2 [2]): > 3000 nM

CC(C)C[C@H](NC(=O)[C@@H](NC(=O)c1ccc(C(F)(F)F)cc1)C(C)C)C(=O)N[C@H](C=O)C[C@@H]1CCCNC1=O
IC50 [1]: 1430 nM
Activity (A549): Non-Toxic
EC50 (SARS-CoV-2 [2]): > 3000 nM

CC(C)[C@H](NC(=O)/C=C/c1ccccc1)C(=O)N[C@H](C=O)C[C@@H]1CCCNC1=O
IC50 [1]: 6930 nM
Activity (A549): Non-Toxic
EC50 (SARS-CoV-2 [2]): > 3000 nM

Cc1ccc(/C=C/C(=O)N[C@H](C(=O)N[C@@H](CC(C)C)C(=O)N[C@H](C=O)C[C@@H]2CCCNC2=O)C(C)C)cc1
IC50 [1]: 196 nM
Activity (A549): Non-Toxic
EC50 (SARS-CoV-2 [2]): > 3000 nM

CC(C)C[C@H](NC(=O)[C@@H](NC(=O)/C=C/c1ccc(-c2ccccc2)cc1)C(C)C)C(=O)N[C@H](C=O)C[C@@H]1CCCNC1=O
IC50 [1]: 295 nM
Activity (A549): Non-Toxic
EC50 (SARS-CoV-2 [2]): > 3000 nM

CC(C)C[C@H](NC(=O)[C@@H](NC(=O)CCc1ccccc1)C(C)C)C(=O)N[C@H](C=O)C[C@@H]1CCCNC1=O
IC50 [1]: 199 nM
Activity (A549): Non-Toxic
EC50 (SARS-CoV-2 [2]): > 3000 nM

CC(C)C[C@H](NC(=O)[C@@H](NC(=O)C1CCCCC1)C(C)C)C(=O)N[C@H](C=O)C[C@@H]1CCCNC1=O
IC50 [1]: 1410 nM
Activity (A549): Non-Toxic
EC50 (SARS-CoV-2 [2]): > 3000 nM

CC[C@H](C)[C@H](NC(=O)/C=C/c1ccccc1)C(=O)N[C@@H](CC(C)C)C(=O)N[C@H](C=O)C[C@@H]1CCCNC1=O
IC50 [1]: 357 nM
Activity (A549): Non-Toxic
EC50 (SARS-CoV-2 [2]): > 3000 nM

CC(C)C[C@H](NC(=O)[C@@H](NC(=O)c1ccc(Cl)cc1)C(C)C)C(=O)N[C@H](C=O)C[C@@H]1CCCNC1=O
IC50 [1]: 148 nM
Activity (A549): Non-Toxic
EC50 (SARS-CoV-2 [2]): > 3000 nM

CC(C)C[C@H](NC(=O)[C@@H](NC(=O)c1ccccc1)C(C)C)C(=O)N[C@H](C=O)C[C@@H]1CCCNC1=O
IC50 [1]: 257 nM
Activity (A549): Non-Toxic
EC50 (SARS-CoV-2 [2]): > 3000 nM

CC(C)C[C@H](NC(=O)[C@@H](NC(=O)/C=C/c1ccccc1F)C(C)C)C(=O)N[C@H](C=O)C[C@@H]1CCCNC1=O
IC50 [1]: 173 nM
Activity (A549): Non-Toxic
EC50 (SARS-CoV-2 [2]): > 3000 nM

CC(C)C[C@H](NC(=O)[C@@H](NC(=O)/C=C/c1ccc(N(C)C)cc1)C(C)C)C(=O)N[C@H](C=O)C[C@@H]1CCCNC1=O
IC50 [1]: 592 nM
Activity (A549): Non-Toxic
EC50 (SARS-CoV-2 [2]): > 3000 nM

C[C@H](NC(=O)/C=C/c1ccccc1)C(=O)N[C@H](C=O)C[C@@H]1CCCNC1=O
IC50 [1]: 12300 nM
Activity (A549): Non-Toxic
EC50 (SARS-CoV-2 [2]): > 3000 nM

CC(C)(C)[C@H](NC(=O)/C=C/c1ccccc1)C(=O)N[C@H](C=O)C[C@@H]1CCCNC1=O
IC50 [1]: 3440 nM
Activity (A549): Non-Toxic
EC50 (SARS-CoV-2 [2]): > 3000 nM
log(activity) (SARS-CoV-2 [3]): 2

CC(C)C[C@H](NC(=O)[C@@H](NC(=O)c1ccoc1)C(C)C)C(=O)N[C@H](C=O)C[C@@H]1CCCNC1=O
IC50 [1]: 173 nM
Activity (A549): Non-Toxic
EC50 (SARS-CoV-2 [2]): > 3000 nM

O=C[C@H](C[C@@H]1CCCNC1=O)NC(=O)[C@H](CC1CC1)NC(=O)/C=C/c1ccccc1
IC50 [1]: 298 nM
Activity (A549): Non-Toxic
EC50 (SARS-CoV-2 [2]): 1130 nM
Activity (Vero): Non-Toxic

C=CC[C@H](NC(=O)/C=C/c1ccccc1)C(=O)N[C@H](C=O)C[C@@H]1CCCNC1=O
IC50 [1]: 1340 nM
Activity (A549): Non-Toxic
EC50 (SARS-CoV-2 [2]): > 3000 nM

COc1ccc(/C=C/C(=O)N[C@H](C(=O)N[C@@H](CC(C)C)C(=O)N[C@H](C=O)C[C@@H]2CCCNC2=O)C(C)C)cc1
IC50 [1]: 249 nM
Activity (A549): Non-Toxic
EC50 (SARS-CoV-2 [2]): > 3000 nM

CC(C)C[C@H](NC(=O)[C@@H](NC(=O)c1cc2ccccc2[nH]1)C(C)C)C(=O)N[C@H](C=O)C[C@@H]1CCCNC1=O
IC50 [1]: 295 nM
Activity (A549): Non-Toxic
EC50 (SARS-CoV-2 [2]): > 3000 nM

CC(C)C[C@H](NC(=O)[C@@H](NC(=O)c1cccnc1)C(C)C)C(=O)N[C@H](C=O)C[C@@H]1CCCNC1=O
IC50 [1]: 640 nM
Activity (A549): Non-Toxic
EC50 (SARS-CoV-2 [2]): > 3000 nM

CC(C)C[C@H](NC(=O)[C@@H](NC(=O)/C=C/c1ccc(C(C)C)cc1)C(C)C)C(=O)N[C@H](C=O)C[C@@H]1CCCNC1=O
IC50 [1]: 230 nM
Activity (A549): Non-Toxic
EC50 (SARS-CoV-2 [2]): > 3000 nM

CCCC[C@H](NC(=O)/C=C/c1ccccc1)C(=O)N[C@H](C=O)C[C@@H]1CCCNC1=O
IC50 [1]: 277 nM
Activity (A549): Non-Toxic
EC50 (SARS-CoV-2 [2]): > 3000 nM

CC(C)C[C@H](NC(=O)[C@@H](NC(=O)c1ccc(F)cc1)C(C)C)C(=O)N[C@H](C=O)C[C@@H]1CCCNC1=O
IC50 [1]: 197 nM
Activity (A549): Non-Toxic
EC50 (SARS-CoV-2 [2]): > 3000 nM

O=C[C@H](C[C@@H]1CCNC1=O)NC(=O)[C@H](Cc1cccc(F)c1)NC(=O)c1cc2ccccc2[nH]1
IC50 [1]: 858 nM
Activity (A549): Non-Toxic
EC50 (SARS-CoV-2 [2]): 360 nM

CC(C)C[C@H](NC(=O)[C@@H](NC(=O)c1ccncc1)C(C)C)C(=O)N[C@H](C=O)C[C@@H]1CCCNC1=O
IC50 [1]: 153 nM
Activity (A549): Non-Toxic
EC50 (SARS-CoV-2 [2]): > 3000 nM
